Data as given in patent US10882843B2, “5-aminopyrazole carboxamide derivative as BTK inhibitor and preparation method and pharmaceutical composition thereof” (SUZHOU SINOVENT PHARMACEUTICALS CO., LTD., priority 2016, dated 2021).

Key:
TEC = target: T1, TEC (Homo sapiens, UniProt P42680); assay: In vitro kinase selectivity assay, TEC (Lance Ultra); assay type: biochemical; conditions: read-out: TEC kinase inhibitory activity grade
T1 sequence (P42680 1-631): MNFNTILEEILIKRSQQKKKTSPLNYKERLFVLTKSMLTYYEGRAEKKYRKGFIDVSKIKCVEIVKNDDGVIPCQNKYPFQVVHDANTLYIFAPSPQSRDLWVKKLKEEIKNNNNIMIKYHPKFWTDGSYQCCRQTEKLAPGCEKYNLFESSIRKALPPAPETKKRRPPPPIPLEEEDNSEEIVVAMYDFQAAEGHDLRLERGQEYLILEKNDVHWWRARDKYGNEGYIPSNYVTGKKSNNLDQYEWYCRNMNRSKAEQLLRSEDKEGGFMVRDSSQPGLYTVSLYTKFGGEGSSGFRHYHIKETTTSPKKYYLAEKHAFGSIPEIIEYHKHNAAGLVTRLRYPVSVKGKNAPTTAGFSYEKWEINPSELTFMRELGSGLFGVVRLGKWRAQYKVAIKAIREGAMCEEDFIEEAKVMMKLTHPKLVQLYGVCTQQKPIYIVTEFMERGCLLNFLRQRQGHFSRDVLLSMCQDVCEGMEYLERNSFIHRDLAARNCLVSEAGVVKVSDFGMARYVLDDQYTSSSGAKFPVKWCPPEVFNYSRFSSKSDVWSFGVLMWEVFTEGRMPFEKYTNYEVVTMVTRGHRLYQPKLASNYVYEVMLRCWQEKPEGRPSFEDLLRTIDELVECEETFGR
Procedure: (§1) The assay platform for EGFR and ITK kinase activities was established using time-resolved fluorescence resonance energy transfer-based method; the assay platform for LCK, SRC and LYN kinase activities was established using Z′-Lyte method; and the assay platform for TEC and JAK3 kinase activities was established using Lance Ultra method. The inhibitory effects of the compounds disclosed herein on different kinase activities were tested separately for each compound at 11 concentrations. The IC50 value of each compound was calculated using Graphpad Prism software.

SRC = SRC (Homo sapiens, UniProt P12931); assay: In vitro kinase selectivity assay, SRC (Z'-Lyte); assay type: biochemical; conditions: read-out: SRC kinase inhibitory activity grade
Chain of SRC (P12931 whole entry, species assumed): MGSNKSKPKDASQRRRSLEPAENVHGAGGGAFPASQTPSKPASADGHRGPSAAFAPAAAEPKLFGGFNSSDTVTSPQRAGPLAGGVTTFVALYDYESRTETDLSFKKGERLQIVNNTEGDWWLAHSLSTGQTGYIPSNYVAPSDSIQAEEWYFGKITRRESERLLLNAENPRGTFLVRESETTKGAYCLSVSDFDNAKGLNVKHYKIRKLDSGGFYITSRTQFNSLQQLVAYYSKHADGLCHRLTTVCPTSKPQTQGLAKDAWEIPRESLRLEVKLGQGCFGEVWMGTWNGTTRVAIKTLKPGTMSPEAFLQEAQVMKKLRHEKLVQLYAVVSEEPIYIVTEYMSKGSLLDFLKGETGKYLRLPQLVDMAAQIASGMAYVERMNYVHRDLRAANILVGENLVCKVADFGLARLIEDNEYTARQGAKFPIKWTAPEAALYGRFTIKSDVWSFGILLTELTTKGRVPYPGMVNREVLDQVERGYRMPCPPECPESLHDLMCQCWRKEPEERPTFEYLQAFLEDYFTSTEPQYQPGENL
Procedure: as §1

ITK = target: T2, ITK (Homo sapiens, UniProt Q08881); assay: In vitro kinase selectivity assay, ITK (TR-FRET); assay type: biochemical; conditions: read-out: ITK kinase inhibitory activity grade
T2 sequence (Q08881 1-620): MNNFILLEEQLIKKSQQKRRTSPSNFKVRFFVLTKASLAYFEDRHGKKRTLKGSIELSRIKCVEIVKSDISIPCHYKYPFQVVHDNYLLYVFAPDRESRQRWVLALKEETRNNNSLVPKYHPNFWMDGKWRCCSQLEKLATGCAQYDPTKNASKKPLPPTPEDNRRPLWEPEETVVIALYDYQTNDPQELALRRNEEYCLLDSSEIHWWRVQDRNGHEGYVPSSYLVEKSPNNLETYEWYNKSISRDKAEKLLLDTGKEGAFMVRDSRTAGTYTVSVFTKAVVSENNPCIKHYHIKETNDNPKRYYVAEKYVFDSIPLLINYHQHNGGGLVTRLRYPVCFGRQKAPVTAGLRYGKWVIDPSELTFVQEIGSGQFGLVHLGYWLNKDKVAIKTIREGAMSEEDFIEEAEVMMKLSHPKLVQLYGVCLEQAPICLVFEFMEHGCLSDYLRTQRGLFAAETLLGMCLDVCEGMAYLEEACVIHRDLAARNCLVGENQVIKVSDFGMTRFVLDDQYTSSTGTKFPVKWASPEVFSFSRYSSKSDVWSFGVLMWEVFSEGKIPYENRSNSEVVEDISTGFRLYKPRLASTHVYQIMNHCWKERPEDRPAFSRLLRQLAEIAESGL
Procedure: as §1

EGFR = EGFR (Homo sapiens, UniProt P00533); assay: In vitro kinase selectivity assay, EGFR (TR-FRET); assay type: biochemical; conditions: read-out: EGFR kinase inhibitory activity grade
Chain of EGFR (P00533 25-1210): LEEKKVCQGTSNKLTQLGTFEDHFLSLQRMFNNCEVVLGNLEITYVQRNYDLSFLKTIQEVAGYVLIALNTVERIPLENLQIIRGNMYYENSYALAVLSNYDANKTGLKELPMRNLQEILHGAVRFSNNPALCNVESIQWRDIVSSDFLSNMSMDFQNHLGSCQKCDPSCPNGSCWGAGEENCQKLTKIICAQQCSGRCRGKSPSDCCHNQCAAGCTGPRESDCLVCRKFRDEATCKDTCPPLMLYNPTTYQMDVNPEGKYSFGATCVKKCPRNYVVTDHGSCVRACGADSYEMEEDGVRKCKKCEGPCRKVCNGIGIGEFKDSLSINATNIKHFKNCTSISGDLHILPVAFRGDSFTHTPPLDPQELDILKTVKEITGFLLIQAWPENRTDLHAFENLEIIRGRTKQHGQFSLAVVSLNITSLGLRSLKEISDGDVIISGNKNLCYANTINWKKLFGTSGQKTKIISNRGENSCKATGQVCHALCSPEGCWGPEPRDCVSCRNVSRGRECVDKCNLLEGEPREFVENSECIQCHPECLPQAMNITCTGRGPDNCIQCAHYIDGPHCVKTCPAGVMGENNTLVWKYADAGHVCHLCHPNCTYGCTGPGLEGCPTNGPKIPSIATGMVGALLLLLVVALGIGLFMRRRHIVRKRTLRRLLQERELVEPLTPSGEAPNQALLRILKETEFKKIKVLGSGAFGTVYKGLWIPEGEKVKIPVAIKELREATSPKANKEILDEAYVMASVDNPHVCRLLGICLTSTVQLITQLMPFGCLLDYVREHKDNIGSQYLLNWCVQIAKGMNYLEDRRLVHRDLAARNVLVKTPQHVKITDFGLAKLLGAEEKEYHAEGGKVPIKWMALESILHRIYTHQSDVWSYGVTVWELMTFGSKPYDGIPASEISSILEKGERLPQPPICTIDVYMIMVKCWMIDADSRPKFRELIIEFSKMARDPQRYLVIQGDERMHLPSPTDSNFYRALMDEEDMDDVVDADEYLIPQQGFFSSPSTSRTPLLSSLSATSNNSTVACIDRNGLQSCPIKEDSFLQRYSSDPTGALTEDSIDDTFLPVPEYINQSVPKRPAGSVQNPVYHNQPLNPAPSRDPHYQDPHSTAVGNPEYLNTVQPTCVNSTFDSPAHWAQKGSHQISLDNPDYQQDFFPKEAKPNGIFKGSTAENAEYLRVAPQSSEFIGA
Procedure: as §1

[1] = test system: diffuse large B-cell lymphoma cell line TMD-8; assay: Pharmacodynamic assay, TMD-8 xenograft in NOD.SCID mice; assay type: in vivo; conditions: p.o. daily for 21 days
Procedure: Severe immunodeficiency NOD.SCID mice were purchased from Beijing Vital River Laboratory Animal Technology Co., Ltd., and were housed in SPF grade animal room. After TMD-8 cells were cultured to the sufficient amount, the cells were collected by centrifugation and washed twice with PBS. Finally, the cells were resuspended in serum-free RPMI 1640 medium plus Matrigel (1:1 v/v). 0.2 ml of cell suspension was injected subcutaneously on the right flank of each mouse using 1 ml syringe and 25 G syringe needle. The tumor size was measured with a caliper after about one week post injection. The tumor volume was calculated according to the following formula: tumor volume=(length×width^2)/2. When the tumor volume reached about 100-200 mm^3, the mice were grouped and p.o. administered daily for 21 days.

LYN = LYN (Homo sapiens, UniProt P07948); assay: In vitro kinase selectivity assay, LYN (Z'-Lyte); assay type: biochemical; conditions: read-out: LYN kinase inhibitory activity grade
Chain of LYN (P07948 whole entry, species assumed): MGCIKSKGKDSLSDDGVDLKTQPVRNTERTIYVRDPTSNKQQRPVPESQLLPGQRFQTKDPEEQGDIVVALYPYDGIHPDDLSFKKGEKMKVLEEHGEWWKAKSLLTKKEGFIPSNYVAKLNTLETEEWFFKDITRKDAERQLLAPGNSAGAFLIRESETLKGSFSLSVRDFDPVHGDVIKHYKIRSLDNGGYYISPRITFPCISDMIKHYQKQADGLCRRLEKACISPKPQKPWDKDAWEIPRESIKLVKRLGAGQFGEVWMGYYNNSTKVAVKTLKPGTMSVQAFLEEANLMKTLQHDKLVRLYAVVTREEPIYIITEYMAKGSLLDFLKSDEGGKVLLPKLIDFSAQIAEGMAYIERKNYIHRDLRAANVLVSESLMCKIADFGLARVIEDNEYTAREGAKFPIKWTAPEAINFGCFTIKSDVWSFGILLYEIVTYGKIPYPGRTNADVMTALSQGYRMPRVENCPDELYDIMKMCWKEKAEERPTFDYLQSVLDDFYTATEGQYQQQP
Procedure: as §1

LCK = LCK (Homo sapiens, UniProt P06239); assay: In vitro kinase selectivity assay, LCK (Z'-Lyte); assay type: biochemical; conditions: read-out: LCK kinase inhibitory activity grade
Chain of LCK (P06239 whole entry, species assumed): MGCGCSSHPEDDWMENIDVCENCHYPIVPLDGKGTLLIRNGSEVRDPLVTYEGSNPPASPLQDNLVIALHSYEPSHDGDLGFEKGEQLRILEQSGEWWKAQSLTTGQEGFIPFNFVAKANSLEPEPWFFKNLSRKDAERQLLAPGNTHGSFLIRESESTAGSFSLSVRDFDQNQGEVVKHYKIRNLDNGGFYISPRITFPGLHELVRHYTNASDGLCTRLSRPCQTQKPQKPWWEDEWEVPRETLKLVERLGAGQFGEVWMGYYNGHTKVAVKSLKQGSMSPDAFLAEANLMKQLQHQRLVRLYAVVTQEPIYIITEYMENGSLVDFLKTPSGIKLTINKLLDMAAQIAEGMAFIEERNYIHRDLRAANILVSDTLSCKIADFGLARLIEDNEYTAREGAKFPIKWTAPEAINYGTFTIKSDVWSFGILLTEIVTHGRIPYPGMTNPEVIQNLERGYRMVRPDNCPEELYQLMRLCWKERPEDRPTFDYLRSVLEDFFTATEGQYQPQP
Procedure: as §1

Recombinant Btk = Recombinant Btk (Homo sapiens, UniProt Q06187); assay: Kinase activity (BTK) inhibition assay, TR-FRET; assay type: biochemical; conditions: read-out: BTK kinase inhibitory activity grade (A/B/C)
Chain of Recombinant Btk (Q06187 whole entry): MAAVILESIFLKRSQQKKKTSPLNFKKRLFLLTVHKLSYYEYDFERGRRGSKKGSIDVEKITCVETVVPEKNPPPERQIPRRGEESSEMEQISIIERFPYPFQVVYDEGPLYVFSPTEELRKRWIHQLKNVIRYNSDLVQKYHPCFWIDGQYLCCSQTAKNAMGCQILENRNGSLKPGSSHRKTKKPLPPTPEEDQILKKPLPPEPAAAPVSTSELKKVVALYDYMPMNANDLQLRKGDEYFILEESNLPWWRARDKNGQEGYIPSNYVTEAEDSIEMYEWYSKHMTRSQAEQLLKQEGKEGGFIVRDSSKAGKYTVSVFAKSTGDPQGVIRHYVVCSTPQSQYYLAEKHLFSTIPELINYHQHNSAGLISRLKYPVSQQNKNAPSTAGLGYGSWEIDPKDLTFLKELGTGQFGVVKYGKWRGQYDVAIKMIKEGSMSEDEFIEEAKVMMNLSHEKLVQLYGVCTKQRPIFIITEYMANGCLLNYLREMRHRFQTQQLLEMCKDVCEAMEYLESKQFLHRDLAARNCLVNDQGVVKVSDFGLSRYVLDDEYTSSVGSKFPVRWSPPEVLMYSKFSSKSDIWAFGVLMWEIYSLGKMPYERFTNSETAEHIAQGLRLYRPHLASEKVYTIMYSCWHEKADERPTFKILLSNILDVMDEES
Procedure: Kinase Activity (BTK) Inhibition Assay
The inhibitory effects of the compounds disclosed herein on BTK kinase activity were tested in an assay based on a time resolved fluorescence resonance energy transfer (TR-FRET) method. Recombinant Btk was pre-incubated with the compound disclosed herein in an assay buffer containing 50 mM. Tris pH 7.4, 10 mM MgCl2, 2 mM MnCl2, 0.1 mM EDTA, 1 mM DTT, 20 nM SEB, 0.1% BSA, 0.005% tween-20 at room temperature for 1 hour. The reaction was initiated by the addition of ATP (at the ATP Km concentration) and the peptide substrate (Biotin-[…]-NH2). After incubation for 1 hour at room temperature, an equal volume of stop solution containing 50 mM HEPES pH 7.0, 800 mM KF, 20 mM EDTA, 0.1% BSA, p-Tyr66 antibody linked with Eu cryptate and streptavidin-labeled XL665 was added to stop the reaction. The plate was incubated for an additional hour at room temperature and then the TR-FRET signal was read on a BMG PHERAstar FS instrument (ex337 nm, em 620 nm/665 nm). Based on the ratio of the signal of fluorescence at […] to 665 nm, the enzyme activity was calculated with an increased compound concentration. IC50 of each compound was obtained by fitting the data to the four-parameter equation of Graphpad Prism software.

- IC50 (TEC): < 100 nM
- IC50 (SRC): > 1000 nM
- IC50 (ITK): > 1000 nM
- IC50 (EGFR): > 1000 nM
- IC50 (LYN): > 1000 nM
- IC50 (LCK): > 1000 nM
- IC50 (Recombinant Btk): < 100 nM
Compound: CC#CC(=O)N1C[C@H](n2nc(-c3ccc(Oc4ccc(Cl)cn4)cc3)c(C(N)=O)c2N)CCC12CC2 [WS-416, (R)-5-amino-1-(4-(2-butynoyl)-4-azaspiro[2.5]oct-6-yl)-3-(4-((5-chloropyridin-2-yl)oxy)phenyl)-1H-pyrazole-4-carboxamide]
- growth of TMD-8 tumor in vivo [1]: significantly inhibited the growth
